Source: US20250332173A1, “COMPOUNDS AND METHODS FOR MODULATING NUCLEIC ACID SPLICING” (REMIX THERAPEUTICS INC., priority 2021, published 2025)
Read-outs that look alike come from different tables or passages of the source.

Assays:
[1] = system: HTT mRNA; experiment: RT-qPCR splicing assay, HTT canonical junction (CJ) and alternative junction (AJ) mRNA; assay type: cell-based, human; settings: Homo sapiens; for AC50: increase in HTT alternative junction (AJ) mRNA, read-out: HTT AJ AC50
Method in brief: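 A673 or K562 cells were treated for 24 h at 37 °C with an 11-point 3-fold compound dilution series (top final concentration 10 uM, DMSO ≤0.25%). After lysis, one-step TaqMan RT-qPCR quantified junction transcripts, normalized to PPIA for A673 or to GAPDH/GUSB for K562.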

[2] = system: Target C; experiment: RT-qPCR splicing assay panel, Target C canonical junction (CJ) mRNA; assay type: cell-based, human; settings: Homo sapiens
Method in brief: (§1)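 A673 cells (DMEM/10% FBS) or K562 cells (IMDM/10% FBS) were treated 24 h at 37° C. with 11-point 3-fold dilutions (top 10 uM, ≤0.25% DMSO). Canonical-junction mRNA was quantified in lysates by RT-qPCR, normalized to GAPDH, GUSB or PPIA.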

[3] = system: SMN2 mRNA; experiment: RT-qPCR splicing assay, SMN2 canonical junction (CJ) mRNA; assay type: cell-based, human; settings: Homo sapiens
Method in brief: as §1

[4] = system: K562 (human chronic myelogenous leukemia) cells; experiment: Cell Titer Glo 2.0 cell viability assay; assay type: cell-based; settings: Homo sapiens, K562, 72 h, K562 cells, 72 hours, Cell Titer Glo 2.0; read-out: K562 GI50
[5] = decrease in HTT canonical junction (CJ) mRNA, RT-qPCR, read-out: HTT CJ IC50
[6] = canonical junction qPCR panel, Table 5, read-out: HTT (decrease in CJ mRNA levels, IC50)
[7] = canonical junction qPCR panel, Table 5, read-out: Target C (decrease in CJ mRNA levels, IC50)
[8] = canonical junction qPCR panel, Table 5, read-out: SMN2 (decrease in CJ mRNA levels, IC50)
[9] = Table 5 panel, canonical junction qPCR, compound concentration having 50% response in CJ decrease, read-out: HTT IC50 (decrease in CJ mRNA levels)
[10] = Table 5 panel, canonical junction qPCR, compound concentration having 50% response in CJ decrease, read-out: Target C IC50 (decrease in CJ mRNA levels)
[11] = Table 5 panel, canonical junction qPCR, compound concentration having 50% response in CJ decrease, read-out: SMN2 IC50 (decrease in CJ mRNA levels)

Row | Structure (SMILES) | IC50 [1, 5] | IC50 [1, 6] | IC50 [2, 7] | IC50 [3, 8] | GI50 [4] | IC50 [1, 9] | IC50 [2, 10] | IC50 [3, 11] | AC50 ([1]; RT-qPCR)
1 | Cc1cn2nc(-c3ccc4c(=O)n(C5CC(C)N[C@H](C)C5)ncc4n3)cc(C)c2n1 (stereo in doubt) [Compound 1536, 2-(2,8-dimethylimidazo[1,2-b]pyridazin-6-yl)-6-[(2S,6R)-2,6-dimethyl-4-piperidyl]pyrido[2,3-d]pyridazin-5-one] | 100 to 1000 nM | 100 to 1000 nM | 100 to 1000 nM | < 100 nM | 100 to 1000 nM | – | – | – | 100 to 1000 nM
2 | Cc1cn2nc(-c3ccc4c(=O)n(C5C[C@@H](C)N[C@H](C)C5)ncc4n3)cc(C)c2n1 (stereo in doubt) [Compound 1537, 2-(2,8-dimethylimidazo[1,2-b]pyridazin-6-yl)-6-[(2R,6R)-2,6-dimethyl-4-piperidyl]pyrido[2,3-d]pyridazin-5-one] | 100 to 1000 nM | 100 to 1000 nM | 100 to 1000 nM | < 100 nM | 100 to 1000 nM | – | – | – | 100 to 1000 nM
3 | Cc1cn2nc(-c3ccc4c(=O)n([C@H]5CC(C)N[C@@H](C)C5)ncc4n3)cc(C)c2n1 (stereo in doubt) [Compound 1538, 2-(2,8-dimethylimidazo[1,2-b]pyridazin-6-yl)-6-[(2S,6S)-2,6-dimethyl-4-piperidyl]pyrido[2,3-d]pyridazin-5-one] | 100 to 1000 nM | 100 to 1000 nM | 100 to 1000 nM | 100 to 1000 nM | 100 to 1000 nM | – | – | – | 100 to 1000 nM
4 | Cc1cn2cc(-c3ccc4c(=O)n(C5CCNCC5)cnc4c3)cc(F)c2n1 [Compound 205] | 100 to 1000 nM | – | – | – | 100 to 1000 nM | 100 to 1000 nM | 100 to 1000 nM | < 100 nM | 100 to 1000 nM
5 | Cc1cn2cc(-c3ccc4c(=O)n(C5CCN(C)CC5)cnc4c3)cc(F)c2n1 [Compound 207] | 1000 to 10000 nM | – | – | – | 1000 to 10000 nM | 1000 to 10000 nM | 1000 to 10000 nM | 100 to 1000 nM | 1000 to 10000 nM
6 | CN1CCC(n2cnc3cc(-c4ccc5nn(C)cc5c4)ccc3c2=O)CC1 [Compound 208] | 1000 to 10000 nM | – | – | – | 1000 to 10000 nM | > 10000 nM | > 10000 nM | 100 to 1000 nM | > 10000 nM
7 | CN1CCC(n2cnc3cc(-c4cc(F)c5nn(C)cc5c4)ccc3c2=O)CC1 [Compound 209] | 100 to 1000 nM | – | – | – | 1000 to 10000 nM | 1000 to 10000 nM | 1000 to 10000 nM | < 100 nM | 1000 to 10000 nM
8 | Cc1cn2cc(-c3ccc4c(=O)n(C5CCNCC5)cnc4c3F)cc(F)c2n1 [Compound 210] | 1000 to 10000 nM | – | – | – | 100 to 1000 nM | 1000 to 10000 nM | 1000 to 10000 nM | 100 to 1000 nM | 1000 to 10000 nM
9 | Cc1c(O)c(-c2ncc3c(=O)n([C@H]4CCNC5(CC5)C4)ccc3n2)cc2cn(C)nc12 [Compound 1512] | 100 to 1000 nM | 100 to 1000 nM | 100 to 1000 nM | – | 100 to 1000 nM | – | – | – | 100 to 1000 nM
10 | Cc1c(O)c(-c2nc(C)c3c(=O)n([C@@H]4CCNC5(CC5)C4)ccc3n2)cc2cn(C)nc12 [Compound 1515, (R)-2-(6-hydroxy-2,7-dimethyl-2H-indazol-5-yl)-4-methyl-6-(4-azaspiro[2.5]octan-7-yl)pyrido[4,3-d]pyrimidin-5(6H)-one] | 1000 to 10000 nM | 100 to 1000 nM | 100 to 1000 nM | – | 100 to 1000 nM | – | – | – | 100 to 1000 nM

Continued, in another order:

Row | IC50 [1, 5] | IC50 [1, 6] | IC50 [2, 7] | IC50 [3, 8] | GI50 [4] | IC50 [1, 9] | IC50 [2, 10] | IC50 [3, 11] | Structure (SMILES) | AC50 ([1]; RT-qPCR)
11 | 100 to 1000 nM | – | – | – | 100 to 1000 nM | 100 to 1000 nM | 100 to 1000 nM | < 100 nM | Cn1cc2cc(-c3ccc4c(=O)n(C5CCNCC5)cnc4c3)cc(F)c2n1 [Compound 206] | 100 to 1000 nM
12 | 1000 to 10000 nM | – | – | – | 1000 to 10000 nM | 1000 to 10000 nM | 1000 to 10000 nM | < 100 nM | Cc1nc2c(F)cc(-c3ccc4c(c3)CCN(C3CCNCC3)C4=O)cc2o1 [Compound 215] | 1000 to 10000 nM
13 | 1000 to 10000 nM | – | – | – | 100 to 1000 nM | 1000 to 10000 nM | 1000 to 10000 nM | < 100 nM | Cc1cn2cc(-c3ccc4c(c3)CCN(C3CCNCC3)C4=O)cc(Cl)c2n1 [Compound 216, 6-[8-chloro-2-methylimidazo[1,2-a]pyridin-6-yl]-2-(piperidin-4-yl)-3,4-dihydroisoquinolin-1-one] | 1000 to 10000 nM
14 | 1000 to 10000 nM | – | – | – | 1000 to 10000 nM | 1000 to 10000 nM | > 10000 nM | 100 to 1000 nM | Cc1cn2cc(-c3ccc4c(c3)CCN(C3CCNCC3)C4=O)cc(C)c2n1 [Compound 217, 6-[2,8-dimethylimidazo[1,2-a]pyridin-6-yl]-2-(piperidin-4-yl)-3,4-dihydroisoquinolin-1-one] | 1000 to 10000 nM
15 | 1000 to 10000 nM | – | – | – | 1000 to 10000 nM | 1000 to 10000 nM | 1000 to 10000 nM | 1000 to 10000 nM | Cc1cn2cc(-c3ccc4c(c3)CCN(C3CCNCC3)C4=O)c(C)cc2n1 [Compound 218, 6-[2,7-dimethylimidazo[1,2-a]pyridin-6-yl]-2-(piperidin-4-yl)-3,4-dihydroisoquinolin-1-one] | 1000 to 10000 nM
16 | 1000 to 10000 nM | – | – | – | 1000 to 10000 nM | 1000 to 10000 nM | 1000 to 10000 nM | < 100 nM | Cc1cc(-c2ccc3c(c2)CCN(C2CCNCC2)C3=O)cc2cn(C)nc12 [Compound 219, 6-(2,7-dimethylindazol-5-yl)-2-(piperidin-4-yl)-3,4-dihydroisoquinolin-1-one] | 1000 to 10000 nM
17 | > 10000 nM | – | – | – | > 10000 nM | > 10000 nM | > 10000 nM | > 10000 nM | O=C1c2ccc(-c3cn[nH]c3)cc2CCN1C1CCNCC1 [Compound 220, 2-(piperidin-4-yl)-6-(1H-pyrazol-4-yl)-3,4-dihydroisoquinolin-1-one] | > 10000 nM
18 | > 10000 nM | – | – | – | 1000 to 10000 nM | > 10000 nM | > 10000 nM | 100 to 1000 nM | Cc1cn2cc(-c3ccc4c(c3)CCN(C3CCNCC3)C4=O)nc2c(C)n1 [Compound 221, 6-[6,8-dimethylimidazo[1,2-a]pyrazin-2-yl]-2-(piperidin-4-yl)-3,4-dihydroisoquinolin-1-one] | > 10000 nM
19 | 1000 to 10000 nM | – | – | – | 1000 to 10000 nM | 1000 to 10000 nM | 1000 to 10000 nM | 100 to 1000 nM | Cc1cn2nc(-c3ccc4c(c3)CCN(C3CCNCC3)C4=O)nc2c(C)n1 [Compound 222, 6-[6,8-dimethyl-[1,2,4]triazolo[1,5-a]pyrazin-2-yl]-2-(piperidin-4-yl)-3,4-dihydroisoquinolin-1-one] | 1000 to 10000 nM
20 | 1000 to 10000 nM | – | – | – | 1000 to 10000 nM | 1000 to 10000 nM | > 10000 nM | 100 to 1000 nM | Cc1cn2nc(-c3ccc4c(c3)CCN(C3CCNCC3)C4=O)cc2c(C)n1 [Compound 223, 6-[4,6-dimethylpyrazolo[1,5-a]pyrazin-2-yl]-2-(piperidin-4-yl)-3,4-dihydroisoquinolin-1-one] | 1000 to 10000 nM
21 | > 10000 nM | – | – | – | > 10000 nM | > 10000 nM | > 10000 nM | 100 to 1000 nM | Cc1cn2cc(-c3ccc4c(c3)CCN(C3CCNCC3)C4=O)ncc2n1 [Compound 224] | > 10000 nM
22 | > 10000 nM | – | – | – | 1000 to 10000 nM | > 10000 nM | > 10000 nM | > 10000 nM | Cn1cc2cc(-c3ccc4c(c3)CCN(C3CCNCC3)C4=O)cc(F)c2n1 [Compound 225] | > 10000 nM
